{
  "source": "patent US9492471B2",
  "about": "“Methods of treating a disease or disorder associated with Bruton'S Tyrosine Kinase” (Celgene Avilomics Research, Inc., priority 2013, dated 2016)",
  "assay_in_all_cases": "HotSpot kinase profiling",
  "format_in_all_cases": "biochemical",
  "key": {"Haspin": {"molecular_target": "T1, Haspin (Homo sapiens, UniProt Q8TF76)", "T1 construct": "purchased Reaction Biology Corp", "T1 sequence (Q8TF76 1-798)": "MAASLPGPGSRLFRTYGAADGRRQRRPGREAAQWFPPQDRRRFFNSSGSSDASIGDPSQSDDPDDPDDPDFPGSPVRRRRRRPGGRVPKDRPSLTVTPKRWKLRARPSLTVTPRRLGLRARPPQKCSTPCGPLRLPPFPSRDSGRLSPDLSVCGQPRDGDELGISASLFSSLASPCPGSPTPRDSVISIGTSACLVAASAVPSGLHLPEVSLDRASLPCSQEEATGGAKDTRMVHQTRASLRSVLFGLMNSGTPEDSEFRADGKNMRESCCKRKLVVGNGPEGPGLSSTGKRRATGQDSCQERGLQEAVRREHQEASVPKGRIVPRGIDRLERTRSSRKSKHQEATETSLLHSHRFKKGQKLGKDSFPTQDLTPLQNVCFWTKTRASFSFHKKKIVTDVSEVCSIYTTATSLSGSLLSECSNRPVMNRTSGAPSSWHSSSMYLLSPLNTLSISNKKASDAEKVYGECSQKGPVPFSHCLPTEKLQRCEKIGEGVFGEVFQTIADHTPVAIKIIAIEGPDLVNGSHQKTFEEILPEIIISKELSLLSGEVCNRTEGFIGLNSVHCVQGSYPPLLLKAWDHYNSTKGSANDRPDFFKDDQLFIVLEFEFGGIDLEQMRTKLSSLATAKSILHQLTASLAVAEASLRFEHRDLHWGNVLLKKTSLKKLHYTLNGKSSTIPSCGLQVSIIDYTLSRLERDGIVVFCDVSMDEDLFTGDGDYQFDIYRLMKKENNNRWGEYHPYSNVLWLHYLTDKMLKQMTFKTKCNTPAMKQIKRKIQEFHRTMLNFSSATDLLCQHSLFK", "procedure,_shortened": "(§1)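 Percent inhibition, averaged when run more than once and referenced to a DMSO negative control, came from a radioactive filter-binding readout on P81 paper. Reactions of kinase with freshly made substrate and cofactors ran for 2 h at room temperature.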"}, "VRK1": {"molecular_target": "T2, VRK1 (Homo sapiens, UniProt Q99986)", "T2 construct": "purchased Reaction Biology Corp", "T2 sequence (Q99986 1-396)": "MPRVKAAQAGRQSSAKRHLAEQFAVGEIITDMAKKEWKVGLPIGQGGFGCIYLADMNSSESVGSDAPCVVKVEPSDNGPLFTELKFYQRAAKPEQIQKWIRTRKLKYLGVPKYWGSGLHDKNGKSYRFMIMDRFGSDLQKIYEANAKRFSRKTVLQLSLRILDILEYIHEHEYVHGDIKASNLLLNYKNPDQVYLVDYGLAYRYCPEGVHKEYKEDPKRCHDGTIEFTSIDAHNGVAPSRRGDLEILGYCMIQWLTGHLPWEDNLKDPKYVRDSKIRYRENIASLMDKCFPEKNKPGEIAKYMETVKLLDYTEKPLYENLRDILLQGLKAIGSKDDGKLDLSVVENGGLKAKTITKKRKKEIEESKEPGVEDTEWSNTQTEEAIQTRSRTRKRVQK", "procedure,_shortened": "as §1"}, "PAK3": {"molecular_target": "T3, PAK3 (Homo sapiens, UniProt O75914)", "T3 construct": "purchased Reaction Biology Corp", "T3 sequence (O75914 whole entry)": "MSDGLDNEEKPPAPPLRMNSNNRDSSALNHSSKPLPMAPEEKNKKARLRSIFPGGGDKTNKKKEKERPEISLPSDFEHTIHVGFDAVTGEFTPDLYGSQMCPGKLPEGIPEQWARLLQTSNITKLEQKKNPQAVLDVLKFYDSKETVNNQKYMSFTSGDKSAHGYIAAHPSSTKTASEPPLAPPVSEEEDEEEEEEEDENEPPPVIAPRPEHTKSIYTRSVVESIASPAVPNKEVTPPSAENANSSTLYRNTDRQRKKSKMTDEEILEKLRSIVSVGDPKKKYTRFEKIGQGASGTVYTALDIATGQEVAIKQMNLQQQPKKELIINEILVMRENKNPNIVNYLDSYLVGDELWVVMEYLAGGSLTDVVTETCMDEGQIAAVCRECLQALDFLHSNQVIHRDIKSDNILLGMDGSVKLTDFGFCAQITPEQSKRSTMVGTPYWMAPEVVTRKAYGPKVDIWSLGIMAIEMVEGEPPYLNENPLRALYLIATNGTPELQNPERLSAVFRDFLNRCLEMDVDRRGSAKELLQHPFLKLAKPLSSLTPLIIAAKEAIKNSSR", "procedure,_shortened": "as §1"}, "MUSK": {"molecular_target": "T4, MUSK (Homo sapiens, UniProt O15146)", "T4 construct": "purchased Reaction Biology Corp", "T4 sequence (O15146 24-869)": "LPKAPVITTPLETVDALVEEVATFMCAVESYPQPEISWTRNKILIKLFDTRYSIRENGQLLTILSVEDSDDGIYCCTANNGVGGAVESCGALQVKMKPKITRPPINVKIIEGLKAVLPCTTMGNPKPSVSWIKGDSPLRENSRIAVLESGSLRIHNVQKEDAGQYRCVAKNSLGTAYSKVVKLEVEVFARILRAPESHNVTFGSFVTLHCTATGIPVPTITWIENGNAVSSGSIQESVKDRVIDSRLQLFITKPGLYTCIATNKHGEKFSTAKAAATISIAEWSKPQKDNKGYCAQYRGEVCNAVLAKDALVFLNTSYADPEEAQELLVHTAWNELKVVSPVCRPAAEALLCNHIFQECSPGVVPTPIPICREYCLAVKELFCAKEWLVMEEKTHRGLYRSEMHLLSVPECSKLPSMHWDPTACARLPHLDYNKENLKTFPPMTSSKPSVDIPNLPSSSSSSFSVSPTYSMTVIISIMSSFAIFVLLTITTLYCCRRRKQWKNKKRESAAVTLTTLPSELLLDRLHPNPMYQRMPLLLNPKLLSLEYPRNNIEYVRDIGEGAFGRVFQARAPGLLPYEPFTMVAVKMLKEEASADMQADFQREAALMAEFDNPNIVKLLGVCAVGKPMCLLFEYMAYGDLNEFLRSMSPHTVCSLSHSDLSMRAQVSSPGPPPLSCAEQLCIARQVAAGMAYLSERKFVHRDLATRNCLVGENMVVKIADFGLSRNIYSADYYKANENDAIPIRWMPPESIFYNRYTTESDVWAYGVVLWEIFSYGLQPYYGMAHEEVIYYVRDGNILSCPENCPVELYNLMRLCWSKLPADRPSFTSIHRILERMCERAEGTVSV", "procedure,_shortened": "as §1"}, "MSK1/RPS6KA5": {"molecular_target": "T5, MSK1/RPS6KA5 (Homo sapiens, UniProt O75582)", "T5 construct": "purchased Reaction Biology Corp", "T5 sequence (O75582 whole entry)": "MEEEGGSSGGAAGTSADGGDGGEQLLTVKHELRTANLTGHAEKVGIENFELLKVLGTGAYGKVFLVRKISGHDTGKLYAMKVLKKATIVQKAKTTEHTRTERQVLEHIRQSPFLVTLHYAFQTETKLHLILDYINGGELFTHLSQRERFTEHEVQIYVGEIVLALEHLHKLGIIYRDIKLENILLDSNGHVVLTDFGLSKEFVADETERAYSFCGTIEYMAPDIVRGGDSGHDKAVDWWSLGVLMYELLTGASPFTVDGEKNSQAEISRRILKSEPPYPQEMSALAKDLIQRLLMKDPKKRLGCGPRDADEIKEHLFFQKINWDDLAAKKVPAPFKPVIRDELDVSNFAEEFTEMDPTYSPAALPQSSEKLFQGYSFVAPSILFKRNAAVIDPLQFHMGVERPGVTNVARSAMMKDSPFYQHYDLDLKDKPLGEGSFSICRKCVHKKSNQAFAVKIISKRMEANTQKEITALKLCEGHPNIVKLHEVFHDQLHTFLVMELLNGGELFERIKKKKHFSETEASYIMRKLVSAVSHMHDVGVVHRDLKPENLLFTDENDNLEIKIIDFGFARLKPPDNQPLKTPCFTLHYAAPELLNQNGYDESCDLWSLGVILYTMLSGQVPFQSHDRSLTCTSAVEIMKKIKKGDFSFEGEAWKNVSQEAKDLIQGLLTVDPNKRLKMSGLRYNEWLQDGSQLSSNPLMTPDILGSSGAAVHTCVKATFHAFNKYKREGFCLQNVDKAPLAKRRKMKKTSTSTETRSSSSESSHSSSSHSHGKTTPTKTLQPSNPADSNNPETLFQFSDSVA", "procedure,_shortened": "as §1"}, "[1]": {"settings": "read-out: % Enzyme Activity (relative to DMSO controls) Run 1"}, "[2]": {"settings": "read-out: % Enzyme Activity (relative to DMSO controls) Run 2"}},
  "note": "Like-named read-outs stand apart in the source and are kept apart here.",
  "data": [
    {"smiles": "C=CC(=O)Nc1cccc(Nc2nc(Nc3ccc(OCCOC)c(F)c3)ncc2F)c1", "note": "[Compound 2]", "values": [
      {"measurement": "inhibition at 3 µM", "setting": "Haspin", "result": 9.77, "unit": "%"},
      {"measurement": "remaining activity at 3 µM", "setting": "Haspin; [1]", "result": 90.6, "unit": "%"},
      {"measurement": "remaining activity at 3 µM", "setting": "Haspin; [2]", "result": 89.9, "unit": "%"},
      {"measurement": "inhibition at 3 µM", "setting": "VRK1", "result": 12.9, "unit": "%"},
      {"measurement": "remaining activity at 3 µM", "setting": "VRK1; [1]", "result": 84.3, "unit": "%"},
      {"measurement": "remaining activity at 3 µM", "setting": "VRK1; [2]", "result": 89.9, "unit": "%"},
      {"measurement": "inhibition at 3 µM", "setting": "PAK3", "result": 6.46, "unit": "%"},
      {"measurement": "remaining activity at 3 µM", "setting": "PAK3; [1]", "result": 91.9, "unit": "%"},
      {"measurement": "remaining activity at 3 µM", "setting": "PAK3; [2]", "result": 95.2, "unit": "%"},
      {"measurement": "inhibition at 3 µM", "setting": "MUSK", "result": 30.9, "unit": "%"},
      {"measurement": "remaining activity at 3 µM", "setting": "MUSK; [1]", "result": 70.2, "unit": "%"},
      {"measurement": "remaining activity at 3 µM", "setting": "MUSK; [2]", "result": 68, "unit": "%"},
      {"measurement": "inhibition at 3 µM", "setting": "MSK1/RPS6KA5", "result": 2.7, "unit": "%"},
      {"measurement": "remaining activity at 3 µM", "setting": "MSK1/RPS6KA5; [1]", "result": 94.9, "unit": "%"},
      {"measurement": "remaining activity at 3 µM", "setting": "MSK1/RPS6KA5; [2]", "result": 99.7, "unit": "%"}
    ]}
  ]
}
